Test results as given in patent US20240301319A1, “PERFUMING COMPOSITIONS” (FIRMNICH SA, priority 2017, published 2024).
Counter-ions that a name gives are not always drawn. Like-named read-outs stand apart in the source and are kept apart here.

What was measured:
[1] = Volatility of perfuming compounds (Tables 4 to 10), with top/middle/bottom note type; assay type: physicochemical
Summary of the method: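 Note type follows from air volatility (μg/l): bottom 49–0.1, middle 99–50, top 70,000–100. Compounds are listed within watery, green, fruity, citrus, sweet, gourmand and woody families.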

[2] = Odor threshold and odor value of perfuming compounds (Tables 4 to 10)
[3] = Table 6, perfuming compounds having a fruity note
[4] = Table 6, perfuming compounds having a fruity note, note type by volatility
[5] = Table 8, perfuming compounds having a sweet note
[6] = Table 8, perfuming compounds having a sweet note, note type by volatility
[7] = Table 9, perfuming compounds having a gourmand note, note type by volatility
[8] = Table 7, citrus note, top, middle or bottom note
[9] = Table 7, citrus note, equals volatility divided by odor threshold
[10] = note type (Top/Middle/Bottom) by volatility, perfuming compounds having a green note
[11] = perfuming compounds having a green note

Compound: C/C=C/c1ccc(OC)cc1 [1-methoxy-4-[(1E)-1-propen-1-yl]benzene]
- Volatility [1, 3]: 184.60 μg/l air
- Type [1, 4]: TOP (perfuming compounds having a volatility ranging from 70,000 to 100 μg/l in air are referred to as “top notes”)
- Volatility [1, 5]: 184.60 μg/l air
- Type [1, 6]: Top
- Volatility ([1]; Table 9, gourmand note): 184.60 μg/l air
- Type [1, 7]: Top
- Odor Threshold [2, 5]: 1.23E−03 μg/l air
- Odor Value [2, 5]: 1.51E+05
- Odor Threshold ([2]; Table 9, gourmand note): 1.23E−03 μg/l air

Compound: CC1=CCC(C(C)C)=CC1 [1-methyl-4-(2-propanyl)-1,4-cyclohexadiene]
- Volatility (μg/l air) ([1]; Table 7, citrus note): 4298.67 μg/l air
- Type [1, 8]: Top
- Odor Threshold (μg/l air) ([2]; Table 7, citrus note): 1.16E−01 μg/l air
- Odor Value [2, 9]: 3.70E+04

Compound: O=C1CCC2(CCCCC2)O1 [1-oxaspiro[4.5]decan-2-one]
- Volatility ([1]; Table 9, gourmand note): 62.86 μg/l air
- Type [1, 7]: Middle
- Odor Threshold ([2]; Table 9, gourmand note): 2.90E−04 μg/l air

Compound: CC(=O)c1ccccc1 [1-phenylethanone]
- Volatility [1, 5]: 1728.98 μg/l air
- Type [1, 6]: Top
- Odor Threshold [2, 5]: 6.61E−03 μg/l air
- Odor Value [2, 5]: 2.62E+05

Compound: Cc1cnc(C)c(C)n1 [2,3,5-TRIMETHYLPYRAZINE]
- Volatility [1, 5]: 7897.31 μg/l air
- Type [1, 6]: Top
- Odor Threshold [2, 5]: 2.82E−04 μg/l air
- Odor Value [2, 5]: 2.80E+07

Compound: COc1cccc(OC)c1O [2,6-DIMETHOXYPHENOL]
- Volatility [1, 5]: 19.23 μg/l air
- Type [1, 6]: Bottom
- Volatility ([1]; Table 9, gourmand note): 19.23 μg/l air
- Type [1, 7]: Bottom
- Odor Threshold [2, 5]: 8.01E−06 μg/l air
- Odor Value [2, 5]: 2.40E+06
- Odor Threshold ([2]; Table 9, gourmand note): 8.01E−06 μg/l air

Compound: Cc1ncsc1CCO [2-(4-METHYL-1,3-THIAZOL-5-YL)-1-ETHANOL]
- Volatility [1, 5]: 2.36 μg/l air
- Type [1, 6]: Bottom
- Odor Threshold [2, 5]: 2.43E−04 μg/l air
- Odor Value [2, 5]: 9.71E+03

Compound: CC(=O)OCCC1CCCCC1 [2-CYCLOHEXYL ETHYL ACETATE]
- Volatility [1, 3]: 489.45 μg/l air
- Type [1, 4]: TOP (perfuming compounds having a volatility ranging from 70,000 to 100 μg/l in air are referred to as “top notes”)
- Volatility [1, 5]: 489.45 μg/l air
- Type [1, 6]: Top
- Odor Threshold [2, 5]: 4.49E−02 μg/l air
- Odor Value [2, 5]: 1.09E+04

Compound: CC(=O)OCCC1CCCCC1 [2-CYCLOHEXYLETHYL ACETATE]
- Volatility ([1]; Table 9, gourmand note): 489.45 μg/l air
- Type [1, 7]: Top
- Odor Threshold ([2]; Table 9, gourmand note): 4.49E−02 μg/l air

Compound: CCOc1ccc2ccccc2c1 [2-ETHOXYNAPHTHALENE]
- Volatility (μg/l air) ([1]; Table 7, citrus note): 22.67 μg/l air
- Type [1, 8]: Bottom
- Odor Threshold (μg/l air) ([2]; Table 7, citrus note): 3.57E−03 μg/l air
- Odor Value [2, 9]: 6.35E+03

Compound: CCc1occc(=O)c1O [2-ETHYL-3-HYDROXY-4(4H)-PYRANONE]
- Volatility [1, 3]: 48.86 μg/l air
- Type [1, 4]: Bottom
- Volatility [1, 5]: 48.86 μg/l air
- Type [1, 6]: Bottom
- Odor Threshold [2, 3]: 6.45E−05 μg/l air
- Odor Value [2, 3]: 7.57E+05
- Odor Threshold [2, 5]: 6.45E−05 μg/l air
- Odor Value [2, 5]: 7.57E+05

Compound: CC1=C(O)C(=O)CC1 [2-HYDROXY-3-METHYL-2-CYCLOPENTEN-1-ONE]
- Volatility [1, 5]: 396.50 μg/l air
- Type [1, 6]: Top
- Odor Threshold [2, 5]: 3.82E−04 μg/l air
- Odor Value [2, 5]: 1.04E+06

Compound: CC(C)Cc1ccc2ccccc2n1 [2-ISOBUTYLQUINOLINE]
- Volatility [1, 5]: 8.73 μg/l air
- Type [1, 6]: Bottom
- Odor Threshold [2, 5]: 1.93E−04 μg/l air
- Odor Value [2, 5]: 4.53E+04

Compound: COc1cc(C)ccc1O [2-METHOXY-4-METHYLPHENOL]
- Volatility [1, 5]: 306.61 μg/l air
- Type [1, 6]: Top
- Odor Threshold [2, 5]: 6.96E−04 μg/l air
- Odor Value [2, 5]: 4.41E+05

Compound: CCCC1CCC(O)C(OC)C1 (stereo not drawn) [2-METHOXY-4-PROPYL-1-CYCLOHEXANOL]
- Volatility (μg/l air) [1]: 189.74 μg/l air
- Type [1, 10]: Top
- Odor Threshold (μg/l air) [2, 11]: 2.85E−02 μg/l air

Compound: CCCC(=NO)C(C)C [2-METHYL-3-HEXANONE OXIME]
- Type [1, 10]: Top
- Volatility (μg/l air) [1, 11]: 687.75 μg/l air
- Odor Threshold (μg/l air) [2, 11]: 4.81E−04 μg/l air

Compound: OCCc1ccccc1 [2-PHENYLETHANOL]
- Volatility [1, 3]: 159.75 μg/l air
- Type [1, 4]: TOP (perfuming compounds having a volatility ranging from 70,000 to 100 μg/l in air are referred to as “top notes”)
- Volatility [1, 5]: 159.75 μg/l air
- Type [1, 6]: Top
- Volatility ([1]; Table 9, gourmand note): 159.75 μg/l air
- Type [1, 7]: Top
- Odor Threshold [2, 5]: 1.02E−04 μg/l air
- Odor Value [2, 5]: 1.56E+06
- Odor Threshold ([2]; Table 9, gourmand note): 1.02E−04 μg/l air

Compound: CC(=O)OCCc1ccccc1 [2-PHENYLETHYL ACETATE]
- Volatility [1, 3]: 201.26 μg/l air
- Type [1, 4]: TOP (perfuming compounds having a volatility ranging from 70,000 to 100 μg/l in air are referred to as “top notes”)
- Volatility [1, 5]: 201.26 μg/l air
- Type [1, 6]: Top
- Volatility ([1]; Table 9, gourmand note): 201.26 μg/l air
- Type [1, 7]: Top
- Odor Threshold [2, 5]: 2.14E−03 μg/l air
- Odor Value [2, 5]: 9.38E+04
- Odor Threshold ([2]; Table 9, gourmand note): 2.14E−03 μg/l air

Compound: O=COCCc1ccccc1 [2-PHENYLETHYL FORMATE]
- Volatility [1, 3]: 567.67 μg/l air
- Type [1, 4]: TOP (perfuming compounds having a volatility ranging from 70,000 to 100 μg/l in air are referred to as “top notes”)
- Volatility (μg/l air) ([1]; Table 7, citrus note): 567.67 μg/l air
- Type [1, 8]: Top
- Type [1, 10]: Top
- Volatility (μg/l air) [1, 11]: 567.67 μg/l air
- Odor Threshold (μg/l air) ([2]; Table 7, citrus note): 8.34E−04 μg/l air
- Odor Value [2, 9]: 6.81E+05
- Odor Threshold (μg/l air) [2, 11]: 8.34E−04 μg/l air

Compound: CC(C)C(=O)OCCc1ccccc1 [2-PHENYLETHYL ISOBUTYRATE]
- Volatility [1, 3]: 67.38 μg/l air
- Type [1, 4]: Middle
- Volatility [1, 5]: 67.38 μg/l air
- Type [1, 6]: Middle
- Volatility ([1]; Table 9, gourmand note): 67.38 μg/l air
- Type [1, 7]: Middle
- Odor Threshold [2, 3]: 6.70E−03 μg/l air
- Odor Value [2, 3]: 1.01E+04
- Odor Threshold [2, 5]: 6.70E−03 μg/l air
- Odor Value [2, 5]: 1.01E+04
- Odor Threshold ([2]; Table 9, gourmand note): 6.70E−03 μg/l air

Compound: O=C(Cc1ccccc1)OCCc1ccccc1 [2-PHENYLETHYL PHENYLACETATE]
- Volatility [1, 3]: 0.20 μg/l air
- Type [1, 4]: Bottom
- Volatility (μg/l air) ([1]; Table 7, citrus note): 0.20 μg/l air
- Type [1, 8]: Bottom
- Volatility [1, 5]: 0.20 μg/l air
- Type [1, 6]: Bottom
- Volatility ([1]; Table 9, gourmand note): 0.20 μg/l air
- Type [1, 7]: Bottom
- Odor Threshold [2, 3]: 9.08E−04 μg/l air
- Odor Value [2, 3]: 2.24E+02
- Odor Threshold (μg/l air) ([2]; Table 7, citrus note): 9.08E−04 μg/l air
- Odor Value [2, 9]: 2.24E+02
- Odor Threshold [2, 5]: 9.08E−04 μg/l air
- Odor Value [2, 5]: 2.24E+02
- Odor Threshold ([2]; Table 9, gourmand note): 9.08E−04 μg/l air

Compound: CC(C)(C)C(=O)OCCc1ccccc1 [2-PHENYLETHYL PIVALATE]
- Volatility [1, 3]: 71.44 μg/l air
- Type [1, 4]: Middle
- Volatility [1, 5]: 71.44 μg/l air
- Type [1, 6]: Middle
- Volatility ([1]; Table 9, gourmand note): 71.44 μg/l air
- Type [1, 7]: Middle
- Odor Threshold [2, 3]: 3.85E−02 μg/l air
- Odor Value [2, 3]: 1.86E+03
- Odor Threshold [2, 5]: 3.85E−02 μg/l air
- Odor Value [2, 5]: 1.86E+03
- Odor Threshold ([2]; Table 9, gourmand note): 3.85E−02 μg/l air

Compound: COc1ccc(OC)c(C(C)(C)C)c1 [2-TERT-BUTYL-1,4-DIMETHOXYBENZENE]
- Type ([1]; Table 10, perfuming compounds having a woody note, note type by volatility): Middle
- Volatility ([1]; Table 10, woody note): 82.95 μg/l air
- Odor Threshold ([2]; Table 10, woody note): 1.65E−02 μg/l air

Compound: C/C=C/c1ccc(O)c(OC)c1 [2-methoxy-4-[(1E)-1-propen-1-yl]phenol]
- Volatility [1, 5]: 11.28 μg/l air
- Type [1, 6]: Bottom
- Volatility ([1]; Table 9, gourmand note): 11.28 μg/l air
- Type [1, 7]: Bottom
- Odor Threshold [2, 5]: 6.63E−06 μg/l air
- Odor Value [2, 5]: 1.70E+06
- Odor Threshold ([2]; Table 9, gourmand note): 6.63E−06 μg/l air

Compound: CC(C)C(=O)OCCOc1ccccc1 [2-phenoxyethyl 2-methylpropanoate]
- Volatility [1, 3]: 10.05 μg/l air
- Type [1, 4]: Bottom
- Type [1, 10]: Bottom
- Volatility (μg/l air) [1, 11]: 10.05 μg/l air
- Odor Threshold [2, 3]: 3.01E−02 μg/l air
- Odor Value [2, 3]: 3.34E+02
- Odor Threshold (μg/l air) [2, 11]: 3.01E−02 μg/l air

Compound: CC(=O)OCCC(C)CCC=C(C)C (stereo not drawn) [3,7-DIMETHYL-6-OCTENYL ACETATE]
- Volatility [1, 3]: 128.72 μg/l air
- Type [1, 4]: TOP (perfuming compounds having a volatility ranging from 70,000 to 100 μg/l in air are referred to as “top notes”)
- Odor Threshold [2, 3]: 2.75E−02 μg/l air
- Odor Value [2, 3]: 4.68E+03

Compound: Cc1occc(=O)c1O [3-HYDROXY-2-METHYL-4(4H)-PYRANONE]
- Volatility [1, 3]: 92.42 μg/l air
- Type [1, 4]: Middle
- Volatility [1, 5]: 92.42 μg/l air
- Type [1, 6]: Middle
- Odor Threshold [2, 3]: 4.17E−04 μg/l air
- Odor Value [2, 3]: 2.22E+05
- Odor Threshold [2, 5]: 4.17E−04 μg/l air
- Odor Value [2, 5]: 2.22E+05

Compound: CC(C)CCOCCc1ccccc1 [3-METHYLBUTYL 2-PHENYLETHYL ETHER]
- Volatility [1, 3]: 110.11 μg/l air
- Type [1, 4]: TOP (perfuming compounds having a volatility ranging from 70,000 to 100 μg/l in air are referred to as “top notes”)
- Volatility [1, 5]: 110.11 μg/l air
- Type [1, 6]: Top
- Volatility ([1]; Table 9, gourmand note): 110.11 μg/l air
- Type [1, 7]: Top
- Odor Threshold [2, 3]: 1.38E−02 μg/l air
- Odor Value [2, 3]: 7.96E+03
- Odor Threshold [2, 5]: 1.38E−02 μg/l air
- Odor Value [2, 5]: 7.96E+03
- Odor Threshold ([2]; Table 9, gourmand note): 1.38E−02 μg/l air

Compound: CC(=O)OCC=C(C)C [3-methyl-2-buten-1-yl acetate]
- Volatility [1, 3]: 27705.98 μg/l air
- Type [1, 4]: TOP (perfuming compounds having a volatility ranging from 70,000 to 100 μg/l in air are referred to as “top notes”)
- Type [1, 10]: Top
- Volatility (μg/l air) [1, 11]: 27705.98 μg/l air
- Odor Threshold (μg/l air) [2, 11]: 5.58E−02 μg/l air
